# Assays:
# [1] = system: leukemia cell line KASUMI-1; experiment: GI50 and LC50 by NCI method, KASUMI-1; type: cell-based; conditions: Homo sapiens, 48 hours, Cell Titer-Blue
# Procedure: (§1) The median growth inhibitory concentration (GI50) and median lethal concentration (LC50) were determined by NCI method. Leukemia cell strains MV4-11, HL60, PL21, KASUMI-1, MONO-MAC-1 and NB-4 were cultured in an Iscove's Modified Dulbecco Medium (IMDM) containing 10% fetal bovine serum, were inoculated into a 96-well cell culture plate at a density of 10,000 cells/100 μL and cultured overnight. 6 wells were selected as Tz wells, 0.125 mg/mL Cell Titer-Blue dye was added, and the cells were cultured for 4 hours and then the fluorescence intensity at […] (excitation wavelength/emission wavelength) was read. Compounds of different concentrations were added to the remaining wells, and a 100% control group was set. After 48 hours of cultivation, 0.125 mg/mL Cell Titer-Blue dye was added and the fluorescence intensity at […] was read after 4 hours. The fluorescence intensity of the dosing group was represented by Ti, the fluorescence intensity of the 100% control group was represented by C, and the fluorescence intensity before dosing was represented by Tz.
# (§2) If Ti≥Tz, the formula [(Ti−Tz)/(C−Tz)]×100 was used.
# (§3) If Ti<Tz, the formula [(Ti−Tz)/Tz]×100 was used.
# (§4) The GI50 and LC50 values of some compounds on leukemia cell strains MV4-11, HL60, PL21, KASUMI-1, MONO-MAC-1 and NB-4 are shown in FIG. 1, Table 3, FIG. 2, and Table 4.
# [2] = system: acute myelogenous leukemia cells MV4-11; experiment: GI50 and LC50 by NCI method, MV4-11; type: cell-based; conditions: Homo sapiens, 48 hours, Cell Titer-Blue
# Procedure: as §1, §2, §3, §4
# [3] = system: acute myelogenous leukemia cells HL60; experiment: GI50 and LC50 by NCI method, HL60; type: cell-based; conditions: for CC50 / GI50: Homo sapiens, HL-60, 48 hours, Cell Titer-Blue
# Procedure: as §1, §2, §3, §4
# HDAC1 = HDAC1 (Homo sapiens (Human), UniProt Q13547); experiment: Inhibitory activity on HDAC1 (fluorescence enzyme assay); conditions: read-out: IC50 HDAC1; mean of three independent experiments
# HDAC1, sequence (Q13547 whole entry, species assumed): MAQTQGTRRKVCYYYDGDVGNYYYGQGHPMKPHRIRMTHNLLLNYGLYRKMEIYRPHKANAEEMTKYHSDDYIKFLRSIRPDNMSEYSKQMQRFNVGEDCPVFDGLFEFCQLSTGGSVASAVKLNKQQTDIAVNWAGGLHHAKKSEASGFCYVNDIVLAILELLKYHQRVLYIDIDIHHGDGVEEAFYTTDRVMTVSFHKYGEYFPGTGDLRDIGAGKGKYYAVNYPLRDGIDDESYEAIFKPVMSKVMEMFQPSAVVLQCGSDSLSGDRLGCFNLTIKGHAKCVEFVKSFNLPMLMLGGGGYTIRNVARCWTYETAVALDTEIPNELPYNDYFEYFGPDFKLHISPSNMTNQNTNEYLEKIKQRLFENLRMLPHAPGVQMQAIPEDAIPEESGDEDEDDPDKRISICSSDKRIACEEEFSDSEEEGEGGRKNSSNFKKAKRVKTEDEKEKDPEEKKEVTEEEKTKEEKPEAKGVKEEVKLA
# [4] = system: leukemia cell line MONO-MAC-1; experiment: GI50 and LC50 by NCI method, MONO-MAC-1; type: cell-based; conditions: 48 hours, Cell Titer-Blue
# Procedure: as §1, §2, §3, §4
# leukemia cell line NB-4 = experiment: GI50 and LC50 by NCI method, NB-4; type: cell-based; conditions: 48 hours, Cell Titer-Blue; read-out: NB4 GI50
# Procedure: as §1, §2, §3, §4
# HDAC2 = HDAC2 (Homo sapiens (Human), UniProt Q92769); experiment: Inhibitory activity on HDAC2 (fluorescence enzyme assay); conditions: read-out: IC50 HDAC2; mean of three independent experiments
# HDAC2, sequence (Q92769 whole entry, species assumed): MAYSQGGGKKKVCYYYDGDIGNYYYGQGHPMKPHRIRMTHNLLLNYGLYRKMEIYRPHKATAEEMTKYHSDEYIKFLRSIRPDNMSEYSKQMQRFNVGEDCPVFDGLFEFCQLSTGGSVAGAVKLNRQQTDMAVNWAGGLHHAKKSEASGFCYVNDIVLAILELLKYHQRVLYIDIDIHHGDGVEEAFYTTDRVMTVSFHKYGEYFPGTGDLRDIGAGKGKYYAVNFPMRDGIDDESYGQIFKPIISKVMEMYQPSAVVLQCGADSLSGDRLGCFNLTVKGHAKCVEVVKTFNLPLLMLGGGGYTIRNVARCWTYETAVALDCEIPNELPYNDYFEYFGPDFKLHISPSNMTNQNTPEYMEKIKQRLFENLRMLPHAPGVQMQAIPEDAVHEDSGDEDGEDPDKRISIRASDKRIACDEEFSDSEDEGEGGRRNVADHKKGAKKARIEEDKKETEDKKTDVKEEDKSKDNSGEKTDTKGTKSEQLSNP
# NAMPT = NAMPT (Homo sapiens (Human), UniProt P43490); experiment: Inhibitory activity on NAMPT; type: biochemical; conditions: for IC50: mean of three independent experiments
# NAMPT, sequence (P43490 whole entry, species assumed): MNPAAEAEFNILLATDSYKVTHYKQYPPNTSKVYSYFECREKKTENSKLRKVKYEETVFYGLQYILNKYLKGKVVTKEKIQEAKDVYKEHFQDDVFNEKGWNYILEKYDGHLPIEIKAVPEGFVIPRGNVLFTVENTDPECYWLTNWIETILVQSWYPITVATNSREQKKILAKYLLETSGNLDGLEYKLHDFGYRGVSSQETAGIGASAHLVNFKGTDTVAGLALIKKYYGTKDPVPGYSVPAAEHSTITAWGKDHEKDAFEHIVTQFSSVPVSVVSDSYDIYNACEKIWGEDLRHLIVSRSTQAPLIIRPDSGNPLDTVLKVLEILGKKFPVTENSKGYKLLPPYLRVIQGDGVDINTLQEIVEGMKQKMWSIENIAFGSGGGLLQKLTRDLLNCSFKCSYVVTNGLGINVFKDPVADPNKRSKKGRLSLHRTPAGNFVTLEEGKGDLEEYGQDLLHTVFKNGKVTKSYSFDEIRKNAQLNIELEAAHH
# leukemia cell line PL21 = experiment: GI50 and LC50 by NCI method, PL21; type: cell-based; conditions: PL-21; 48 hours, Cell Titer-Blue
# Procedure: as §1, §2, §3, §4
# [5] = Pharmacokinetic properties in mice; type: in vivo
# HDAC3 = HDAC3 (Homo sapiens (Human), UniProt O15379); experiment: Inhibitory activity on HDAC3 (fluorescence enzyme assay); conditions: read-out: IC50 HDAC3; mean of three independent experiments
# HDAC3, sequence (O15379 whole entry, species assumed): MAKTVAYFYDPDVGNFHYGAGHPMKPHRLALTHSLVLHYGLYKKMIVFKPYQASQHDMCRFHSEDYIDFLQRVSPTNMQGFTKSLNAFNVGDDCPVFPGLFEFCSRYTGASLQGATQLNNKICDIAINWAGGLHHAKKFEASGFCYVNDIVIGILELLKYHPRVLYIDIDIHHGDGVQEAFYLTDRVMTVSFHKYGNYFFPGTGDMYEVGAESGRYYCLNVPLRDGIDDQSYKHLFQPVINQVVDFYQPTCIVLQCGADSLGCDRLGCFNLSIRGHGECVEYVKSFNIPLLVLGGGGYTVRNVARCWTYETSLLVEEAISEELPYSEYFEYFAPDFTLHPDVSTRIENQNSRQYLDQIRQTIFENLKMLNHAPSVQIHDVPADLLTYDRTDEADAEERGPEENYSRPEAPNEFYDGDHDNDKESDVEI
# HDAC3, sequence (Q9Y618 395-489 partner, species assumed): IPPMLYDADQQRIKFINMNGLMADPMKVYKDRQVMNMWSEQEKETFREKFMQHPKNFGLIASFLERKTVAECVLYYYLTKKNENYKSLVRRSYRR
# [6] = mouse, plasma, po 20 mg/kg single dose
SMILES,GI50 [2] [nM],CC50 [3] [nM],GI50 [3] [nM],IC50 (HDAC1) [nM],IC50 (HDAC2) [nM],IC50 (HDAC3) [nM],LC50 (median lethal concentration) [2] [nM],other results
"CCCNNC(=O)c1ccc(CNC(=O)/C=C/c2ccccc2)cc1 [Comparative example 1 LP411/3b, reference compound]",66,> 10000,121,11.8,95.5,–,–,GI50 [1]: 17.8 nM; CC50 [4]: > 10000 nM; GI50 [4]: 16.3 nM; GI50 (leukemia cell line NB-4): 19.5 nM; IC50 (NAMPT): > 20000 nM; GI50 (leukemia cell line PL21): 523 nM
"CCCNNC(=O)/C=C/c1ccc(CNCCc2c(C)[nH]c3ccccc23)cc1 [Comparative example 2 LP97/13a, reference compound]",–,–,–,–,–,–,–,"AUC(0-t) [5, 6]: 242 ng·h/mL; Tmax [5, 6]: 30 min; Cmax ([5]; po 20 mg/kg single dose): 45.1 ng/mL; F ([5]; po 20 mg/kg vs iv 5 mg/kg): 19.8%; IC50 (NAMPT): > 20000 nM"
"O=C(/C=C/c1cccnc1)NCCCCC1CCN(C(=O)c2ccccc2)CC1 [FK866, reference compound]",7.95,> 10000,12.1,–,–,–,–,–
"CCCNNC(=O)CCNC(=O)/C=C/c1cccnc1 [LEE1, (E)-N-(3-oxo-3-(2-propylhydrazino)propyl)-3-(pyridin-3-yl) acrylamide]",–,–,–,> 10000,13600,1560,–,–
"CCCNNC(=O)CCCCNC(=O)/C=C/c1cccnc1 [LEE2, (E)-N-(5-oxo-5-(2-propylhydrazino)pentyl)-3-(pyridin-3-yl) acrylamide]",–,–,–,689,2000,112,–,–
"CCCNNC(=O)CCCCCCNC(=O)/C=C/c1cccnc1 [LEE3, (E)-N-(7-oxo-7-(2-propylhydrazino)heptyl)-3-(pyridin-3-yl) acrylamide]",–,–,–,–,339,–,–,–
"CCCNNC(=O)CCCCCCCNC(=O)/C=C/c1cccnc1 [LEE4, (E)-N-(8-oxo-8-(2-propylhydrazino)octyl)-3-(pyridin-3-yl) acrylamide]",–,–,–,241,506,76.7,–,–
"CCCNNC(=O)CCCCCCNC(=O)NCc1cccnc1 [LEE5, 1-(7-oxo-7-(2-propylhydrazino)heptyl)-3-(pyridin-3-ylmethyl) urea]",–,–,–,444,398,110,–,–
"CCCNNC(=O)CCCCCCNC(=O)c1cc2cnccc2[nH]1 [LEE7, N-(7-oxo-7-(2-propylhydrazino)heptyl)-3H-pyrrolo[3,2-c]pyridin-2-carboxamide]",64.7,724,158,–,–,–,164,LC50 values in p53-null cell strain HL60 (in words) [3]: nanomolar level
"Nc1ccccc1NC(=O)CCCCCCCNC(=O)/C=C/c1cccnc1 [LEE8, (E)-N-(2-aminophenyl)-8-(3-(pyridin-3-yl)acrylamido) octanamide]",31.2,–,–,147,321,26.4,456,–
"Nc1ccccc1NC(=O)CCCCCCCn1cc(-c2cccnc2)nn1 [LEE11, N-(2-aminophenyl)-8-(4-(pyridin-3-yl)-1H-1,2,3-triazole-1-yl) octanamide]",–,–,–,–,188,8.78,–,–
"CCCNNC(=O)c1ccc(CNC(=O)/C=C/c2ccccn2)cc1 [LEE13, (E)-N-(4-(2-propylhydrazino-1-carbonyl)benzyl)-3-(pyridin-2-yl) acrylamide]",15,> 10000,128,13.2,49.2,1.82,125,–
"CCCNNC(=O)c1ccc(CNC(=O)/C=C/c2ccncc2)cc1 [LEE14, (E)-N-(4-(2-propylhydrazino-1-carbonyl)benzyl)-3-(pyridin-4-yl)acrylamide]",14.3,6060,63.1,12.7,88.5,2.74,83.6,LC50 values in p53-null cell strain HL60 (in words) [3]: nanomolar level
"CCCNNC(=O)c1ccc(CNC(=O)c2cc3cnccc3s2)cc1 [LEE19, N-(4-(2-propylhydrazin-1-carbonyl)benzyl)thiopheno[3,2-c]pyridin-2-carboxamide]",54,> 10000,77.3,10.1,60,1.2,98.5,–
"CCCNNC(=O)c1ccc(CNC(=O)c2cc3cnccc3o2)cc1 [LEE20, N-(4-(2-propylhydrazino-1-carbonyl)benzyl)furan[3,2-c]pyridine-2-carboxyamide]",50.4,> 10000,–,10.3,38.4,0.52,109,–
"CCCNNC(=O)c1ccc(CNC(=O)c2cc3ccncc3[nH]2)cc1 [LEE21, N-(4-(2-propylhydrazino-1-carbonyl)benzyl)-1H-pyrrolo[2,3-c]pyridine-2-carboxamide]",25.4,> 10000,81.5,8.17,51.5,2.42,58,–
"CCCNNC(=O)c1ccc(CNC(=O)CCCCCCCNC(=O)/C=C/c2cccnc2)cc1 [LEE37, (E)-N-(4-(2-propylhydrazino-1-carbonyl)benzyl)-8-(3-(pyridine-3-yl)acrylamido) octanamide]",–,–,–,17.8,84.1,1.98,–,–
"CCCNNC(=O)c1ccc(NC(=O)CCCCCCCNC(=O)/C=C/c2cccnc2)cc1 [LEE38, (E)-N-(4-(2-propylhydrazino-1-carbonyl)phenyl)-8-(3-(pyridine-3-yl)acrylamido) amide]",–,–,–,620,539,97.4,–,–
"CCCNNC(=O)c1ccc(CNC(=O)CCCCCCNC(=O)/C=C/c2cccnc2)cc1 [LEE39, (E)-N-(4-(2-propylhydrazino-1-carbonyl)benzyl)-7-(3-(pyridine-3-yl)acrylamido) heptanamide]",–,–,–,501,1180,84.3,–,–
"CCCNNC(=O)c1ccc(NC(=O)CCCCCCNC(=O)/C=C/c2cccnc2)cc1 [LEE40, (E)-N-(4-(2-propylhydrazino-1-carbonyl)phenyl)-7-(3-(pyridine-3-yl)acrylamido) heptamide]",15.7,–,–,–,123,12.4,–,–
"CCCNNC(=O)c1ccc(NC(=O)CCCCCCCn2cc(-c3cccnc3)nn2)cc1 [LEE41, N-(4-(2-propylhydrazino-1-carbonyl)phenyl)-8-(4-(pyridin-3-yl)-1H-1,2,3-triazole-1-yl) octanamide]",–,–,–,18,78.7,1.08,–,–
"COC(=O)c1ccc(CNC(=O)/C=C/c2cccnc2)cc1 [LEE43, methyl (E)-4-((3-(pyridine-3-yl)acrylamido)methyl) benzoate]",–,–,–,–,–,–,–,inhibitory activity against NAMPT (in words) (NAMPT): micromolar level; IC50 (NAMPT): 4680 nM
"COC(=O)c1ccc(CNC(=O)c2cc3cnccc3[nH]2)cc1 [LEE44, methyl 4-((1H-pyrrolo[3,2-c]pyridine-2-carbonylamide)methyl) benzoate]",–,–,–,–,–,–,–,inhibitory activity against NAMPT (in words) (NAMPT): micromolar level; IC50 (NAMPT): 6710 nM

# From US20240327418A1, “MULTI-TARGET INHIBITOR TARGETING HDAC AND NAD SYNTHESIS AND USE OF MULTI-TARGET INHIBITOR” (OCEAN UNIVERSITY OF CHINA, priority 2021, published 2024)
